Experimental data published in PMC5564600 (Oncotarget, 2017).

How the values were obtained:
Assay in all cases: biochemical
Type in all cases: binding
panel of 442 kinases [1] = target: T1, panel of 442 kinases (Homo sapiens, UniProt P10721, A829P); settings: kinase KIT(A829P); for remaining activity at 1 µM: read-out: % of control at 1 µM
T1 construct: purchased Ambit Biosciences (scanMAXX KINOMEscan)

panel of 442 kinases [2] = target: T2, panel of 442 kinases (Homo sapiens, UniProt Q15375); settings: EPHA7; for remaining activity at 1 µM: read-out: % of control at 1 µM
T2 construct: purchased Ambit Biosciences (scanMAXX KINOMEscan)
T2 sequence (Q15375 28-998): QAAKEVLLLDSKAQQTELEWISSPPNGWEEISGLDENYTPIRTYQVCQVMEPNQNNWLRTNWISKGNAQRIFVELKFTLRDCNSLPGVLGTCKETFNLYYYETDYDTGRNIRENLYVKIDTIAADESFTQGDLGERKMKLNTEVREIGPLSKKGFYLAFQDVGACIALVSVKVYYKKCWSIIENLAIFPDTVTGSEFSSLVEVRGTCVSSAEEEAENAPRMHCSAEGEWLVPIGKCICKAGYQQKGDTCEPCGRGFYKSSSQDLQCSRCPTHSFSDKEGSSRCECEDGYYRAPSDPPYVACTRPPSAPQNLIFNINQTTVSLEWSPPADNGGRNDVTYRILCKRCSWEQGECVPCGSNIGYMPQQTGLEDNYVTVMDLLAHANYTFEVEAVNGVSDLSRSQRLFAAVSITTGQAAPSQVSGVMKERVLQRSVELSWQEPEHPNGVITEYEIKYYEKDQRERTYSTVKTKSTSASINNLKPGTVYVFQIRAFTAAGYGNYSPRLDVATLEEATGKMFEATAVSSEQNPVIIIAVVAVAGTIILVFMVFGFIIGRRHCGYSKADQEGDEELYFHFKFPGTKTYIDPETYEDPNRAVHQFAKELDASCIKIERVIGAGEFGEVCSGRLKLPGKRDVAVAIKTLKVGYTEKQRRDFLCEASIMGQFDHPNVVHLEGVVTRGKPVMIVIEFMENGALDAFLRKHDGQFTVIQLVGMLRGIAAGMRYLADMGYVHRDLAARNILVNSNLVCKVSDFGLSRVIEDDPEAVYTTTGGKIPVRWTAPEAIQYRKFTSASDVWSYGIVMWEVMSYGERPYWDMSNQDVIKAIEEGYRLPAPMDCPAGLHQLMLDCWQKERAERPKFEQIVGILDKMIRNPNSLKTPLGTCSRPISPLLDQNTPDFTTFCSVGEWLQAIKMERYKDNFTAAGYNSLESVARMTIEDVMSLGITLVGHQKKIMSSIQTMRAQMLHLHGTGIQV

panel of 442 kinases [3] = target: T3, panel of 442 kinases (Homo sapiens, UniProt Q9P286); settings: kinase PAK7; for remaining activity at 1 µM: read-out: % of control at 1 µM
T3 construct: purchased Ambit Biosciences (scanMAXX KINOMEscan)
T3 sequence (Q9P286 whole entry): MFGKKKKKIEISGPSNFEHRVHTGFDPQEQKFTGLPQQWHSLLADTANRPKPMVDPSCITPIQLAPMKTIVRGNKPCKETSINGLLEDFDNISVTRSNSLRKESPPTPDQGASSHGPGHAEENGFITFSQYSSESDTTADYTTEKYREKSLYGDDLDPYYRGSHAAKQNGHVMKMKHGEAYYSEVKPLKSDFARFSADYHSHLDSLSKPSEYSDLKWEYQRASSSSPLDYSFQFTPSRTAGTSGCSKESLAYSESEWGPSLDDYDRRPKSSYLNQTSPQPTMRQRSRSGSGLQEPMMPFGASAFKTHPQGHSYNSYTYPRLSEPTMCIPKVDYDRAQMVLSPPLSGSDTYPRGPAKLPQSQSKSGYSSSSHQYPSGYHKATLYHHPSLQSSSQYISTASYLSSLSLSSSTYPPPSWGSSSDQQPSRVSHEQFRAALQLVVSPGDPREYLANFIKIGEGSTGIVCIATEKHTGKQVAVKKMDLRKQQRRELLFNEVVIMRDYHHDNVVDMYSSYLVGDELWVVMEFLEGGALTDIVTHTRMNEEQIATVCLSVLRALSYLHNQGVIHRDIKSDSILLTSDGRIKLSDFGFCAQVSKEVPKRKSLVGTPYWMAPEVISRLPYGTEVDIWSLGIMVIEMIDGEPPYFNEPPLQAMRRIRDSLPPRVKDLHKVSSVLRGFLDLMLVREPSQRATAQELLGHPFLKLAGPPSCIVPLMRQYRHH

panel of 442 kinases [4] = target: T4, panel of 442 kinases (Homo sapiens, UniProt P29322); settings: EPHA8; for remaining activity at 1 µM: read-out: % of control at 1 µM
T4 construct: purchased Ambit Biosciences (scanMAXX KINOMEscan)
T4 sequence (P29322 28-1005): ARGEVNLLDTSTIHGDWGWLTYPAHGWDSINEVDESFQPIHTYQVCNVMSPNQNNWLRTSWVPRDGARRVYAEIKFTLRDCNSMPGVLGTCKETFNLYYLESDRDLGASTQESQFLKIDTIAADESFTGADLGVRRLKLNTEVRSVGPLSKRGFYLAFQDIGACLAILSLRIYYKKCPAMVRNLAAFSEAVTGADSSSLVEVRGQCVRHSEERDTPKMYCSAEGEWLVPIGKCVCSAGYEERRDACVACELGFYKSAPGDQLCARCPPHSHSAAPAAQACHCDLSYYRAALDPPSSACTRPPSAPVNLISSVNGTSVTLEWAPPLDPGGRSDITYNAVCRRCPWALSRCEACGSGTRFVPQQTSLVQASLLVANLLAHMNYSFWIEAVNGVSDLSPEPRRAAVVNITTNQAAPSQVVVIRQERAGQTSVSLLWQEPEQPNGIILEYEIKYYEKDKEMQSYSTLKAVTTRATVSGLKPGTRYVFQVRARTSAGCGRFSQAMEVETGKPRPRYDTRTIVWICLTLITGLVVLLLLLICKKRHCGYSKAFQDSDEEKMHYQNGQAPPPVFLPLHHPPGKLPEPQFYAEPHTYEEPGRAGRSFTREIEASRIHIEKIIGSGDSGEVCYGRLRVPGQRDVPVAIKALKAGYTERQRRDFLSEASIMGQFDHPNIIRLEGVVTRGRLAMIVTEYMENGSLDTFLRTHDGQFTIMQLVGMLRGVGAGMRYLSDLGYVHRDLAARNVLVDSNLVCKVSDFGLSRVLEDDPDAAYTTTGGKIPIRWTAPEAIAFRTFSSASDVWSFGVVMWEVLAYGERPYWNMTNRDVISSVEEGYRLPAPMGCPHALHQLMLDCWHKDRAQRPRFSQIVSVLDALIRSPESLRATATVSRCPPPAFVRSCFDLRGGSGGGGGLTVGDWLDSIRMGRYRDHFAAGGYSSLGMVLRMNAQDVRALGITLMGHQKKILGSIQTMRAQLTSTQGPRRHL

panel of 442 kinases [5] = target: T5, panel of 442 kinases (Homo sapiens, UniProt P46734); settings: kinase MEK3; for remaining activity at 1 µM: read-out: % of control at 1 µM
T5 construct: purchased Ambit Biosciences (scanMAXX KINOMEscan)
T5 sequence (P46734 1-347): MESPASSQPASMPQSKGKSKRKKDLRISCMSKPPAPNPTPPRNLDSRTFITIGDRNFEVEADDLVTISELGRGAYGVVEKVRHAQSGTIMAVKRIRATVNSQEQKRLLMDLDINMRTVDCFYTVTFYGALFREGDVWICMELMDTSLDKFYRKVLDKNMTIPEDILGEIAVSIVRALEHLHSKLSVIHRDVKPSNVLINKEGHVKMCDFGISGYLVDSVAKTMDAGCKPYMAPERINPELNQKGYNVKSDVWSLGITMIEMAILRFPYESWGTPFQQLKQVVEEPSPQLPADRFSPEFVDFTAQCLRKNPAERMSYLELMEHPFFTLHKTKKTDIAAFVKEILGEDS

panel of 442 kinases [6] = target: T6, panel of 442 kinases (Homo sapiens, UniProt O94804); settings: kinase LOK; for remaining activity at 1 µM: read-out: % of control at 1 µM
T6 construct: purchased Ambit Biosciences (scanMAXX KINOMEscan)
T6 sequence (O94804 whole entry): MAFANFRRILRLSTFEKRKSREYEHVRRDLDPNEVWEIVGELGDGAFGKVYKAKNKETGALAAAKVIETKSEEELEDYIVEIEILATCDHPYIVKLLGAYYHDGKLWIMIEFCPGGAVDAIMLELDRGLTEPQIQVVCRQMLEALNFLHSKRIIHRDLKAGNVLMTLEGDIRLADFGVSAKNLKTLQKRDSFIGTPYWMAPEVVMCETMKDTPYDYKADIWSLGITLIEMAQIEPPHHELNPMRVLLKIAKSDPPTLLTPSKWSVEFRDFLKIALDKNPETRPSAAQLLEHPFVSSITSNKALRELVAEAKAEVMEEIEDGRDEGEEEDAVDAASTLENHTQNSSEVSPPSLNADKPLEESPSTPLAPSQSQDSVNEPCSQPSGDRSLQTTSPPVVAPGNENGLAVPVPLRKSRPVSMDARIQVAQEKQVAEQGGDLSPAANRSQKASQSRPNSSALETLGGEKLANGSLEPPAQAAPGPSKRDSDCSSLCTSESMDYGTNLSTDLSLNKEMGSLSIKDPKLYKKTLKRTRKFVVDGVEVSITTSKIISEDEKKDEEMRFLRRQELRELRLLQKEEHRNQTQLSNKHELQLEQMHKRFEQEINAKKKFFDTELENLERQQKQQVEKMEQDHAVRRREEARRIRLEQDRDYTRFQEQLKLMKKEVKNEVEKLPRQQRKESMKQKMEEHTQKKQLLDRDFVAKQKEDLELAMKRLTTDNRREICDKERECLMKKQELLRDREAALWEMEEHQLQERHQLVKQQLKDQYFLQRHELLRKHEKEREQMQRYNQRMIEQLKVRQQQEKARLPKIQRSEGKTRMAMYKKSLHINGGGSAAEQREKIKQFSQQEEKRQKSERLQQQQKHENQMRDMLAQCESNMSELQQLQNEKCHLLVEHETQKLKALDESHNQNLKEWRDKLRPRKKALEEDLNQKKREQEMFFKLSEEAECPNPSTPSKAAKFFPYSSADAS

panel of 442 kinases [7] = target: T7, panel of 442 kinases (Homo sapiens, UniProt Q13163); settings: kinase MEK5; for remaining activity at 1 µM: read-out: % of control at 1 µM
T7 construct: purchased Ambit Biosciences (scanMAXX KINOMEscan)
T7 sequence (Q13163 1-448): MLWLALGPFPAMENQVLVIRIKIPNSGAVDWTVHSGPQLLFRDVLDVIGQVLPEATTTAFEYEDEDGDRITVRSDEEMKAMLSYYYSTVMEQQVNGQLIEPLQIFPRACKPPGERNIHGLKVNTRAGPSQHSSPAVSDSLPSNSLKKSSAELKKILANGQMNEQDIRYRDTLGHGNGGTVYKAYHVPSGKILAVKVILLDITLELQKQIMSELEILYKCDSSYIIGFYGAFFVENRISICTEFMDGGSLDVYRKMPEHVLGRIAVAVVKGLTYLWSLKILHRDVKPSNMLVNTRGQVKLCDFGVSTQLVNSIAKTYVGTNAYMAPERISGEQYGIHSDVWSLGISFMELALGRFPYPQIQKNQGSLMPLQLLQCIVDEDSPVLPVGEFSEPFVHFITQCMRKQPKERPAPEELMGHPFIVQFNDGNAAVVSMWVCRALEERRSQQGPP

[8] = 10 µM, read-out: % of control at 10 µM

T1 sequence (P10721 26-976 A829P): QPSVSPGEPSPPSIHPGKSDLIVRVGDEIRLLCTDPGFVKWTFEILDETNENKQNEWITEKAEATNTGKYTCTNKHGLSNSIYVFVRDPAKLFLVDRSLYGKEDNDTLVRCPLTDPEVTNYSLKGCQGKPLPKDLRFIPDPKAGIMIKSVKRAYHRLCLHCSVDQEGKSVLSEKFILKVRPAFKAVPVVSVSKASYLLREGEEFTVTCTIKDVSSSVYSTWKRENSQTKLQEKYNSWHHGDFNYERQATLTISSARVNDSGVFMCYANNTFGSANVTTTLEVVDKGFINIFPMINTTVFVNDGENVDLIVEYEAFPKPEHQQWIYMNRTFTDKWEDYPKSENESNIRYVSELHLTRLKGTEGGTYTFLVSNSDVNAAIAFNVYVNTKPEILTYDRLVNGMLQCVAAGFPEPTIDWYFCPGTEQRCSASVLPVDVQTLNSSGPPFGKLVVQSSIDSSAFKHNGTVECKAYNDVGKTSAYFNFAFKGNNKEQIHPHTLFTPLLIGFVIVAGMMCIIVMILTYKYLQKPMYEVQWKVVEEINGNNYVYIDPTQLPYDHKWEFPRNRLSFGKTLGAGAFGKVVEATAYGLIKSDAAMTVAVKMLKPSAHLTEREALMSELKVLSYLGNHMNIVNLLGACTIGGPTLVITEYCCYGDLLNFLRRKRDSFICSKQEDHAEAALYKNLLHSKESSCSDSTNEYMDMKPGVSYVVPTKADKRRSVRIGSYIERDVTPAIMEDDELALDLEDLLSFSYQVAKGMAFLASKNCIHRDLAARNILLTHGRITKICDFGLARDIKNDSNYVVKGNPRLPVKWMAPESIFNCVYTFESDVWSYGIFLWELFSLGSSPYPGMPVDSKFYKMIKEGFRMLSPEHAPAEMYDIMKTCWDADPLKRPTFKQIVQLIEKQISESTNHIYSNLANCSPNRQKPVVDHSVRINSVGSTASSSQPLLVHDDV

Row | Structure (SMILES) | remaining activity at 1 µM (panel of 442 kinases [1]) [%] | remaining activity at 10 µM (panel of 442 kinases [1]; [8]) [%] | remaining activity at 1 µM (panel of 442 kinases [2]) [%] | remaining activity at 10 µM (panel of 442 kinases [2]; [8]) [%] | remaining activity at 1 µM (panel of 442 kinases [3]) [%] | remaining activity at 10 µM (panel of 442 kinases [3]; [8]) [%] | remaining activity at 1 µM (panel of 442 kinases [4]) [%] | remaining activity at 10 µM (panel of 442 kinases [4]; [8]) [%] | remaining activity at 1 µM (panel of 442 kinases [5]) [%] | remaining activity at 10 µM (panel of 442 kinases [5]; [8]) [%] | remaining activity at 1 µM (panel of 442 kinases [6]) [%] | remaining activity at 10 µM (panel of 442 kinases [6]; [8]) [%] | remaining activity at 1 µM (panel of 442 kinases [7]) [%] | remaining activity at 10 µM (panel of 442 kinases [7]; [8]) [%]
1 | Nc1cc(C(F)(F)F)c(-c2cc(N3CCOCC3)nc(N3CCOCC3)n2)cn1 [Buparlisib] | 100 | 98 | 100 | 100 | 78 | 69 | 100 | 100 | 100 | 100 | 92 | 100 | 88 | 85
2 | Cn1c(=O)n(-c2ccc(C(C)(C)C#N)cc2)c2c3cc(-c4cnc5ccccc5c4)ccc3ncc21 [Dactolisib, 2-methyl-2-[4-(3-methyl-2-oxo-8-quinolin-3-yl-2,3-dihydroimidazo[4,5-c]quinolin-1-yl)-phenyl] propionitrile] | 61 |  | 100 |  | 73 |  | 94 |  | 96 |  | 100 |  | 42 | 
3 | COc1ncc(-c2ccc3nccc(-c4ccnnc4)c3c2)cc1NS(=O)(=O)c1ccc(F)cc1F [Omipalisib] | 100 |  | 100 |  | 100 |  | 100 |  | 46 |  | 100 |  | 69 | 
4 | FC(F)c1nc2ccccc2n1-c1nc(N2CCOCC2)nc(N2CCOCC2)n1 [ZSTK474, 2-(difluoromethyl)-1-[4,6-di(4-morpholinyl)-1,3,5-triazin-2-yl]-1H-benzimidazole] | 90 |  | 100 |  | 100 |  | 100 |  | 100 |  | 100 |  | 99 | 
